Assay results: article PMC12341765, “Microenvironment-triggered multimodal precision diagnostics” (Nature materials, 2021)

Columns and labels:
[1] = tested on: MC26 CRC lung tumors; assay: 5-FU treatment of CRC lung disease model, monitored with PRISM (urine, PET-CT); format: in vivo, BALB/c mice; conditions: 5-FU 15 mg/kg i.p.
Method: 5-Fluorouracil (5-FU) was purchased (Sigma-Aldrich) and prepared as previously described.[47] 5-FU or vehicle control (DMSO) was administered by intraperitoneal injection at in a 0.2 mL volume starting 1 week after cell injection for metastasis-initiation experiments. A 15 mg/kg dose per treatment was used for all experiments. […] Experimental group sizes were practically associated according to the number of mice housed per cage (n=5 mice per cage). […] Tumor-bearing mice were closely monitored and euthanized following health-check advice given by an independent veterinary scientist responsible for animal welfare. […] Reconstructed PET and CT data were quantitatively evaluated using VivoQuant software (inviCRO Inc.). […] The radioactivity uptake values within CT-drawn organs were obtained from mean voxel values within the ROI and converted to percentage injected dose (ID) and then divided by mouse weight (g) to obtain an imaging ROI-derived percentage of the injected radioactive dose per gram of tissue (%ID/g). […] The tumor (or tissue) to tissue (i.e. lung to liver) ratio was calculated by dividing the mean lung by the mean liver %ID/g values. To quantify the radioactivity in diseased tissues ex vivo, tissues were harvested after perfusion with PBS and counts were collected using a 2480 WIZARD2 gamma counter (Perkin Elmer Inc.). […]

[2] = tested on: LS 174T tumors; assay: PET-CT imaging of low glucose uptake subcutaneous xenografts; design: species or system NCr nude mice; conditions: mouse, in vivo
[3] = tested on: MC26 CRC lung tumors; conditions: mouse, in vivo

Compound	relative lung/liver ratio of PET-CT signal, no-treatment cohort versus cohort treated with chemotherapy ([1]; two weeks of treatment, 64Cu-PRISM PET-CT)	effect on tumor progression compared with non-treated cohort ([1]; urinary reporter signal and PET imaging, after a single week)	tumor uptake versus background tissue [2]	background signal in the chest / heart accumulation on PET-CT [3]
O=c1[nH]cc(F)c(=O)[nH]1 [5-FU, 5-Fluorouracil]	over 3 times	significantly inhibited tumor progression	–	–
OC[C@H]1OC(O)[C@H](F)[C@@H](O)[C@@H]1O (stereo partly shown) [18F-FDG, 18F-2-deoxyfluoroglucose]	–	–	indistinguishable from the background tissue	strong accumulation in the heart
